Laboratory results taken from PubChem BioAssay (NCI).
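Where inhibition never reached the appropriate level, the endpoint shown equals the highest concentration tested. Otherwise, values were interpolated linearly from a five-concentration, 48-hour dose response in 96-well plates. TGI: concentration producing complete growth inhibition.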

Tests used:
Test in all cases: NCI tumour cell line growth inhibition, 48 h
NCI-H226 lung = system: NCI-H226 lung
CCRF-CEM leukemia = system: CCRF-CEM leukemia
A549 NSCLC = system: A549 NSCLC
NCI-H522 lung = system: NCI-H522 lung
SK-MEL-2 melanoma = system: SK-MEL-2 melanoma
EKVX NSCLC = system: EKVX NSCLC
MCF7 breast = system: MCF7 breast
SN12C renal = system: SN12C renal
NCI-H460 lung = system: NCI-H460 lung
HS 578T breast = system: HS 578T breast
SF-268 CNS = system: SF-268 CNS
PC-3 prostate = system: PC-3 prostate
DU-145 prostate = system: DU-145 prostate
HCC-2998 colon = system: HCC-2998 colon
MOLT-4 leukemia = system: MOLT-4 leukemia
A498 renal = system: A498 renal
SK-MEL-5 melanoma = system: SK-MEL-5 melanoma
OVCAR-8 ovarian = system: OVCAR-8 ovarian
OVCAR-5 ovarian = system: OVCAR-5 ovarian
NCI-H23 lung = system: NCI-H23 lung
IGROV1 ovarian = system: IGROV1 ovarian
SK-MEL-28 melanoma = system: SK-MEL-28 melanoma
UO-31 renal = system: UO-31 renal
K-562 leukemia = system: K-562 leukemia
CAKI-1 renal = system: CAKI-1 renal
SF-539 CNS = system: SF-539 CNS
OVCAR-3 ovarian = system: OVCAR-3 ovarian
NCI/ADR-RES ovarian = system: NCI/ADR-RES ovarian
786-0 renal = system: 786-0 renal
SNB-75 CNS = system: SNB-75 CNS
BT-549 breast = system: BT-549 breast
SF-295 CNS = system: SF-295 CNS
RPMI-8226 leukemia = system: RPMI-8226 leukemia
SR leukemia = system: SR leukemia
MDA-N = system: MDA-N
MALME-3M melanoma = system: MALME-3M melanoma
OVCAR-4 ovarian = system: OVCAR-4 ovarian
COLO 205 colon = system: COLO 205 colon
SW-620 colon = system: SW-620 colon
LOX IMVI melanoma = system: LOX IMVI melanoma
ACHN renal = system: ACHN renal
HOP-62 NSCLC = system: HOP-62 NSCLC
HOP-92 NSCLC = system: HOP-92 NSCLC
HL-60(TB) leukemia = system: HL-60(TB) leukemia
HCT-15 colon = system: HCT-15 colon
MDA-MB-231 breast = system: MDA-MB-231 breast
HT29 colon = system: HT29 colon
HCT-116 colon = system: HCT-116 colon
RXF 393 renal = system: RXF 393 renal
U251 CNS = system: U251 CNS
TK-10 renal = system: TK-10 renal
KM12 colon = system: KM12 colon
UACC-257 melanoma = system: UACC-257 melanoma
MDA-MB-435 = system: MDA-MB-435

Measured: TGI

CNC(=O)OCc1cnc([N+](=O)[O-])n1C
> 100 µM: NCI-H226 lung | CCRF-CEM leukemia | A549 NSCLC | NCI-H522 lung | SK-MEL-2 melanoma | EKVX NSCLC | MCF7 breast | SN12C renal | NCI-H460 lung | HS 578T breast | SF-268 CNS | PC-3 prostate | DU-145 prostate | HCC-2998 colon | MOLT-4 leukemia | A498 renal | SK-MEL-5 melanoma | OVCAR-8 ovarian | OVCAR-5 ovarian | NCI-H23 lung | IGROV1 ovarian | SK-MEL-28 melanoma | UO-31 renal | K-562 leukemia | CAKI-1 renal | SF-539 CNS | OVCAR-3 ovarian | NCI/ADR-RES ovarian | 786-0 renal | SNB-75 CNS | BT-549 breast | SF-295 CNS | RPMI-8226 leukemia | SR leukemia | MDA-N | MALME-3M melanoma | OVCAR-4 ovarian | COLO 205 colon | SW-620 colon | LOX IMVI melanoma | ACHN renal | HOP-62 NSCLC | HOP-92 NSCLC | HL-60(TB) leukemia | HCT-15 colon | MDA-MB-231 breast | HT29 colon | HCT-116 colon | RXF 393 renal | U251 CNS | TK-10 renal | KM12 colon | UACC-257 melanoma | MDA-MB-435
